From publication PMC7064328 (Environmental Health Perspectives, 2020)

Test system: maternal liver
Assay: Maternal liver histopathology (H&E)
Format: in vivo, mouse (CD-1)
Details: for CA, any severity: % / CA, any severity: N / CA, marked: % / CA, marked: N / CA, minimal to mild: % / CA, minimal to mild: N / CA, moderate: % / CA, moderate: N / Focal regions of classic necrosis: % / Focal regions of classic necrosis: N / Increase in cell death: % / Increase in cell death: N / Increase in mitotic figures: % / Increase in mitotic figures: N / Vacuolation, any severity: % / Vacuolation, any severity: N / Vacuolation, mild: % / Vacuolation, mild: N / Vacuolation, minimal: % / Vacuolation, minimal: N / Vacuolation, moderate: % / Vacuolation, moderate: N: maternal liver
Text: From each uterus, first, viable embryos and their matched placentas were collected in succession within a horn and immediately snap frozen ( n=2–5 per litter ), and subsequent embryos were collected for growth measurements ( n=2–11 per litter ). Additional placentas were collected and placed in 4% paraformaldehyde (PFA) for histological analysis (Block 2 only). Amniotic fluid was collected by needle aspiration from litters euthanized at E11.5 and snap frozen in liquid nitrogen. Embryo livers were collected from litters euthanized at E17.5 and snap frozen in liquid nitrogen. Dam livers were weighed, a portion of the left lateral lobe was placed in 4% PFA for histology, and another portion of the same lobe was snap frozen in liquid nitrogen. A third liver section was obtained from Block 2 dams and fixed in McDowell and Trump’s fixative for electron microscopy (EM). Gross lesions were collected when observed and placed in 4% PFA for histology. Dam kidneys were removed, a cross section was prepared from the right kidney, a longitudinal section was prepared from the left kidney, and both sections were fixed in 4% PFA for histological analysis.
Dam livers, kidneys, and placentas were trimmed and embedded by the NIEHS Mouse Embryo Phenotyping Core. Tissues collected at necropsy were fixed in 4% PFA for 72 h and paraffin embedded, and 5-μm sections were prepared and stained with hematoxylin and eosin (H&E). Pathology was evaluated and a pathology review conducted by S.A.E. Diplomate American College of Veterinary Pathologists (DACVP). Pathology reviews were conducted as an informed approach analysis [e.g., nonblinded analysis; see Sills et al. ([2019])]. Select tissue slides were scanned using the AT2 Scanner (Aperio). Images were then captured for publication using the ImageScope software; version 12.3.0.5056 (Aperio). Serum and urine obtained from dams in Block 2 were analyzed using the AU480 clinical chemistry analyzer (Beckman Coulter Inc.). Reagents and calibration standards used to measure alkaline phosphatase (ALP), alanine aminotransferase (ALT), aspartate aminotransferase (AST), blood urea nitrogen (BUN), serum creatinine, urine creatinine, glucose (Glu), total protein (TP), triglyceride (Trig), high-density lipoprotein (HDL), cholesterol (Chol), and albumin (ALB) were purchased from Beckman Coulter Inc. Reagents for sorbitol dehydrogenase (SDH), total bile acid (TBA), and micro-TP were purchased from Sekisui Diagnostics. The reagent used to measure low-density lipoprotein (LDL) was purchased form Diazyme Laboratories.

O=C(O)C(F)(F)C(F)(F)C(F)(F)C(F)(F)C(F)(F)C(F)(F)C(F)(F)F [PFOA, Perfluorooctanoic acid]
1: Increase in cell death: N (E11.5, 1 mg/kg/d)
20%: Increase in cell death: % (E11.5, 1 mg/kg/d)
60%: Increase in cell death: % (E11.5, 5 mg/kg/d)
0: CA, marked: N (E11.5, 1 mg/kg/d) | CA, moderate: N (E11.5, 1 mg/kg/d) | Focal regions of classic necrosis: N (E11.5, 1 mg/kg/d) | Vacuolation, any severity: N (E11.5, 1 mg/kg/d) | Vacuolation, mild: N (E11.5, 1 mg/kg/d) | Vacuolation, minimal: N (E11.5, 1 mg/kg/d) | Vacuolation, moderate: N (E11.5, 1 mg/kg/d) | CA, minimal to mild: N (E11.5, 5 mg/kg/d) | CA, moderate: N (E11.5, 5 mg/kg/d) | Vacuolation, minimal: N (E11.5, 5 mg/kg/d) | Vacuolation, moderate: N (E11.5, 5 mg/kg/d) | CA, marked: N (E17.5, 1 mg/kg/d) | CA, minimal to mild: N (E17.5, 1 mg/kg/d) | Focal regions of classic necrosis: N (E17.5, 1 mg/kg/d) | Increase in mitotic figures: N (E17.5, 1 mg/kg/d) | Vacuolation, any severity: N (E17.5, 1 mg/kg/d) | Vacuolation, mild: N (E17.5, 1 mg/kg/d) | Vacuolation, minimal: N (E17.5, 1 mg/kg/d) | Vacuolation, moderate: N (E17.5, 1 mg/kg/d) | CA, minimal to mild: N (E17.5, 5 mg/kg/d) | CA, moderate: N (E17.5, 5 mg/kg/d) | Focal regions of classic necrosis: N (E17.5, 5 mg/kg/d) | Increase in mitotic figures: N (E17.5, 5 mg/kg/d) | Vacuolation, mild: N (E17.5, 5 mg/kg/d) | Vacuolation, minimal: N (E17.5, 5 mg/kg/d)
5: CA, any severity: N (E11.5, 1 mg/kg/d) | CA, minimal to mild: N (E11.5, 1 mg/kg/d) | CA, any severity: N (E11.5, 5 mg/kg/d) | CA, marked: N (E11.5, 5 mg/kg/d) | Increase in mitotic figures: N (E11.5, 5 mg/kg/d) | Vacuolation, any severity: N (E11.5, 5 mg/kg/d) | Vacuolation, mild: N (E11.5, 5 mg/kg/d) | CA, any severity: N (E17.5, 1 mg/kg/d) | CA, moderate: N (E17.5, 1 mg/kg/d) | Increase in cell death: N (E17.5, 1 mg/kg/d)
3: Increase in cell death: N (E11.5, 5 mg/kg/d)
0%: CA, marked: % (E11.5, 1 mg/kg/d) | CA, moderate: % (E11.5, 1 mg/kg/d) | Focal regions of classic necrosis: % (E11.5, 1 mg/kg/d) | Vacuolation, any severity: % (E11.5, 1 mg/kg/d) | Vacuolation, mild: % (E11.5, 1 mg/kg/d) | Vacuolation, minimal: % (E11.5, 1 mg/kg/d) | Vacuolation, moderate: % (E11.5, 1 mg/kg/d) | CA, minimal to mild: % (E11.5, 5 mg/kg/d) | CA, moderate: % (E11.5, 5 mg/kg/d) | Vacuolation, minimal: % (E11.5, 5 mg/kg/d) | Vacuolation, moderate: % (E11.5, 5 mg/kg/d) | CA, marked: % (E17.5, 1 mg/kg/d) | CA, minimal to mild: % (E17.5, 1 mg/kg/d) | Focal regions of classic necrosis: % (E17.5, 1 mg/kg/d) | Increase in mitotic figures: % (E17.5, 1 mg/kg/d) | Vacuolation, any severity: % (E17.5, 1 mg/kg/d) | Vacuolation, mild: % (E17.5, 1 mg/kg/d) | Vacuolation, minimal: % (E17.5, 1 mg/kg/d) | Vacuolation, moderate: % (E17.5, 1 mg/kg/d) | CA, minimal to mild: % (E17.5, 5 mg/kg/d) | CA, moderate: % (E17.5, 5 mg/kg/d) | Focal regions of classic necrosis: % (E17.5, 5 mg/kg/d) | Increase in mitotic figures: % (E17.5, 5 mg/kg/d) | Vacuolation, mild: % (E17.5, 5 mg/kg/d) | Vacuolation, minimal: % (E17.5, 5 mg/kg/d)
2: Increase in mitotic figures: N (E11.5, 1 mg/kg/d) | Focal regions of classic necrosis: N (E11.5, 5 mg/kg/d)
40%: Increase in mitotic figures: % (E11.5, 1 mg/kg/d) | Focal regions of classic necrosis: % (E11.5, 5 mg/kg/d)
6: CA, any severity: N (E17.5, 5 mg/kg/d) | CA, marked: N (E17.5, 5 mg/kg/d) | Increase in cell death: N (E17.5, 5 mg/kg/d) | Vacuolation, any severity: N (E17.5, 5 mg/kg/d) | Vacuolation, moderate: N (E17.5, 5 mg/kg/d)
100%: Incidence of livers with adverse outcomes including cytoplasmic alteration (all dose groups, E11.5 and E17.5) | CA, any severity: % (E11.5, 1 mg/kg/d) | CA, minimal to mild: % (E11.5, 1 mg/kg/d) | CA, any severity: % (E11.5, 5 mg/kg/d) | CA, marked: % (E11.5, 5 mg/kg/d) | Increase in mitotic figures: % (E11.5, 5 mg/kg/d) | Vacuolation, any severity: % (E11.5, 5 mg/kg/d) | Vacuolation, mild: % (E11.5, 5 mg/kg/d) | CA, any severity: % (E17.5, 1 mg/kg/d) | CA, moderate: % (E17.5, 1 mg/kg/d) | Increase in cell death: % (E17.5, 1 mg/kg/d) | CA, any severity: % (E17.5, 5 mg/kg/d) | CA, marked: % (E17.5, 5 mg/kg/d) | Increase in cell death: % (E17.5, 5 mg/kg/d) | Vacuolation, any severity: % (E17.5, 5 mg/kg/d) | Vacuolation, moderate: % (E17.5, 5 mg/kg/d)
